# Laboratory results as given in PubChem BioAssay (NCI).
# “And” between values parts separate entries of the source, which are not always exact repeats. Equal entries are not always repeated.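 Growth conditions: 96-well plates. Treatment: test compound, 48 hours, 5 concentrations. Analysis: linear interpolation between bracketing concentrations; unreached endpoints set to highest concentration. Here, GI50 denotes the concentration required for 50% inhibition of growth. TGI: concentration producing complete growth inhibition.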
# Key:
# Assay in all cases: growth of human tumour cells (NCI), 48 h
# A549 NSCLC = system: A549 NSCLC
# HCT-15 colon = system: HCT-15 colon
# SW-620 colon = system: SW-620 colon
# OVCAR-3 ovarian = system: OVCAR-3 ovarian
# NCI-H460 lung = system: NCI-H460 lung
# COLO 205 colon = system: COLO 205 colon
# CAKI-1 renal = system: CAKI-1 renal
# MDA-MB-231 breast = system: MDA-MB-231 breast
# HS 578T breast = system: HS 578T breast
# SK-MEL-5 melanoma = system: SK-MEL-5 melanoma
SMILES,TGI (A549 NSCLC),TGI (HCT-15 colon),TGI (SW-620 colon),TGI (OVCAR-3 ovarian),TGI (NCI-H460 lung),TGI (COLO 205 colon),GI50 (CAKI-1 renal) [µM],TGI (CAKI-1 renal),GI50 (A549 NSCLC),GI50 (MDA-MB-231 breast),TGI (MDA-MB-231 breast),GI50 (HS 578T breast),TGI (HS 578T breast),GI50 (SK-MEL-5 melanoma) [µM],TGI (SK-MEL-5 melanoma),GI50 (HCT-15 colon),GI50 (SW-620 colon) [µM],GI50 (NCI-H460 lung) [µM],GI50 (COLO 205 colon),GI50 (OVCAR-3 ovarian)
Cc1nn(C)c(=S)n(C)c1=O,23.8 µM,> 100 µM,> 100 µM,> 100 µM,> 100 µM,15.4 µM,–,–,–,–,–,–,–,–,–,–,–,–,–,–
COc1ccc(-c2nn(-c3cccc(NC(=O)Nc4cccc(C(F)(F)F)c4)c3)cc2-c2ccncc2)cc1Cl,> 100 µM,> 100 µM,> 100 µM,–,11.5 µM,3.69 µM,1.77,> 100 µM,1.83 µM,2.18 µM,19.8 µM,1.65 µM,7.84 µM,1.57,3.22 µM,1.81 µM,3.37,1.76,1.69 µM,–
COC(=O)c1ccccc1N=Cc1ccc(N(CCC#N)S(=O)(=O)c2ccccc2)cc1,> 100 µM,> 100 µM,> 100 µM,> 100 µM,> 100 µM,> 100 µM,–,> 100 µM,–,–,–,–,–,–,> 100 µM,–,–,–,–,–
COC(=O)C(=O)C(C#N)c1ccc(Cl)c(Cl)c1 (stereo not given),> 100 µM,> 100 µM,> 100 µM,> 100 µM,–,–,–,> 100 µM,–,–,–,–,–,–,> 100 µM,–,–,–,–,–
COc1ccc(/C=C/C(C(=O)O)C(=O)O)cc1,> 100 µM,> 100 µM,> 100 µM,> 100 µM,> 100 µM,> 100 µM,–,> 100 µM,–,–,–,–,–,–,> 100 µM,–,–,–,–,–
CN(Cc1ccccc1)C1(N(C)Cc2ccccc2)CC1,> 100 µM,> 100 µM,> 100 µM,> 100 µM,> 100 µM,> 100 µM,–,> 100 µM,–,–,–,–,–,–,> 100 µM,–,–,–,–,–
C=CCNC(=S)OCCCCCCCCCC,76.2 µM,29.4 µM,32.7 µM,–,33 µM,–,–,34 µM,–,–,–,–,–,–,30.5 µM,–,–,–,–,–
COc1ccc(CCC2NCCc3cc(OC)c(OC)cc32)cc1 (stereo not given),> 100 µM,> 100 µM,> 100 µM,> 100 µM,> 100 µM,–,–,> 100 µM,–,–,–,–,–,–,> 100 µM,–,–,–,–,–
CCC(C)CC(CC)NCCN1CCN(C(CC)CC(C)CC)C1=S (stereo not given),3.37 µM,3.4 µM,3.55 µM,4.08 µM,4.1 µM,2.95 µM,1.8,3.66 µM,1.76 µM,1.84 µM,3.55 µM,–,–,1.61,2.95 µM,1.79 µM,1.89,2.5,1.6 µM,1.97 µM
N#Cc1nc(Nc2ccc([N+](=O)[O-])cc2)sc1N,> 100 µM,> 100 µM,> 100 µM,> 69.4 µM,> 100 µM,> 100 µM,–,56.7 µM,–,–,–,–,–,–,12.7 µM,–,–,–,–,–
COC1(OC)c2ccccc2C2(O)c3ccccc3C(=O)C12 (stereo not given),–,> 100 µM,> 100 µM,> 100 µM,> 100 µM,27 µM,–,–,–,–,–,–,–,–,31.9 µM,–,–,–,–,–
O=C(/C=C/c1ccc(Cl)cc1)c1ccncc1,> 100 µM,> 100 µM,> 100 µM,> 100 µM,> 100 µM,> 100 µM,–,> 100 µM,–,–,–,–,–,–,> 100 µM,–,–,–,–,–
O=C(O/N=C1/CCCC/C1=C\c1ccccc1)c1ccc(Cl)cc1,> 100 µM,> 100 µM,> 100 µM,> 100 µM,> 100 µM,> 100 µM,–,> 100 µM,–,–,–,–,–,–,> 100 µM,–,–,–,–,–
CN(C)CCCC(=O)Nc1ccc(Cn2nnc3c2C(=O)c2nnn(Cc4ccc(NC(=O)CCCN(C)C)cc4)c2C3=O)cc1,39.2 µM,> 100 µM,12.2 µM,6.02 µM,10.8 µM,3.52 µM,> 100,> 100 µM,16.8 µM,–,–,2.93 µM,7.68 µM,1.48,2.84 µM,56.8 µM,3.43,2.82,1.79 µM,2.38 µM
Cn1cnc([N+](=O)[O-])c1Sc1nnc(C(F)(F)F)n1C,> 100 µM,–,43.3 µM,55.6 µM,> 100 µM,28.8 µM,–,> 100 µM,–,–,–,–,–,–,> 100 µM,–,–,–,–,–
COc1cc2c3c(n(CCCNCCN4CCOCC4)c(=O)c2cc1OC)-c1cc2c(cc1C3=O)OCO2,5.42 µM,–,1.33 µM,1.4 µM and 3.27 µM,–,50 µM and 45.8 µM,2.61,19.4 µM,0.182 µM and 1.37 µM,2.18 µM,5.72 µM,2.94 µM and 16.9 µM,13.3 µM and 48 µM,–,7.74 µM and 20.2 µM,0.453 µM and 2.14 µM,0.0762,–,2.01 µM and 7.31 µM,0.528 µM and 0.6 µM
COP1(=S)OCC2CCC[C@@H]2O1 (stereo not given in full),> 100 µM,> 100 µM,> 100 µM,> 100 µM,> 100 µM,> 100 µM,–,> 100 µM,–,–,> 100 µM,–,–,–,> 100 µM,–,–,–,–,–
C=CCC(C)(C(=O)NCCC)C(=O)c1ccccc1O (stereo not given),> 100 µM,> 100 µM,> 100 µM,> 100 µM,> 100 µM,> 100 µM,–,> 100 µM,–,–,–,–,–,–,> 100 µM,–,–,–,–,–

SMILES,TGI (A549 NSCLC),TGI (HCT-15 colon),TGI (SW-620 colon),TGI (OVCAR-3 ovarian),TGI (NCI-H460 lung),TGI (COLO 205 colon),GI50 (CAKI-1 renal) [µM],TGI (CAKI-1 renal),GI50 (A549 NSCLC),GI50 (MDA-MB-231 breast),TGI (MDA-MB-231 breast),GI50 (HS 578T breast),TGI (HS 578T breast),GI50 (SK-MEL-5 melanoma) [µM],TGI (SK-MEL-5 melanoma),GI50 (HCT-15 colon),GI50 (SW-620 colon) [µM],GI50 (NCI-H460 lung) [µM],GI50 (COLO 205 colon),GI50 (OVCAR-3 ovarian)
C1C[OH+]CC[OH+]CC[OH+]CC[OH+]CC[OH+]CC[OH+]1.[Cl-].[Ta+5],> 100 µM,> 100 µM,> 100 µM,> 100 µM,> 100 µM,> 100 µM,> 100,> 100 µM,> 100 µM,–,–,–,–,> 100,> 100 µM,> 100 µM,> 100,> 100,> 100 µM,> 100 µM
CC(C)CC(=O)CC(O)C(Cl)(Cl)Cl (stereo not given),> 100 µM,> 100 µM,> 100 µM,> 100 µM,–,> 100 µM,–,> 100 µM,–,–,> 100 µM,–,> 100 µM,–,> 100 µM,–,–,–,–,–
CC1=N/C(=C\c2cccc3ccccc23)C(=O)O1,> 100 µM,> 100 µM,> 100 µM,–,> 100 µM,> 100 µM,–,–,–,–,–,–,–,–,> 100 µM,–,–,–,–,–
O=c1c2cccnc2ncn1CCCN1CCOCC1,> 100 µM,–,> 100 µM,> 100 µM,> 100 µM,> 100 µM,–,> 100 µM,–,–,–,–,–,–,> 100 µM,–,–,–,–,–
Cc1cccc(N2C(=O)C(=O)C(c3nc4ccccc4s3)C(=O)C2=O)c1C,> 100 µM,> 100 µM,> 100 µM,> 100 µM,–,> 100 µM,–,> 100 µM,–,–,–,–,–,–,> 100 µM,–,–,–,–,–
N#CC(=S)Nc1ccc(F)cc1,> 100 µM,> 100 µM,> 100 µM,> 100 µM,> 100 µM,> 100 µM,–,> 100 µM,–,–,> 100 µM,–,–,–,75.8 µM,–,–,–,–,–
O=[N+]([O-])c1ccc(O)c2ncccc12,> 100 µM and 12.9 µM,> 100 µM and 18.8 µM,> 100 µM and 18.6 µM,–,> 100 µM and 11.4 µM,> 100 µM and 10.7 µM,–,> 100 µM and 16.5 µM,–,38.4 µM and 4.4 µM,> 100 µM and 20.6 µM,–,> 100 µM,–,–,–,–,–,–,–
N#Cc1ccc2oc3ccc(C#N)cc3c(=O)c2c1,57 µM,> 100 µM,> 100 µM,–,37.4 µM,> 100 µM,–,> 100 µM,–,–,> 100 µM,–,–,–,17.6 µM,–,–,–,–,–
CN(C)CCNC(=O)c1cccc2c1nc(-c1ccccn1)c1ccccc12,27.9 µM,30.6 µM,27.3 µM,38.6 µM,23.2 µM,24.8 µM,–,61.9 µM,–,–,–,–,–,–,28.7 µM,–,–,–,–,–
CC(C)c1ccc(O)c(=O)cc1,> 71.4 µM,> 100 µM,> 100 µM,> 100 µM and 18.3 µM,81.4 µM,30.1 µM,8.54,> 70.1 µM,4.69 µM,13.4 µM,–,–,–,11.1,35.2 µM and 41.4 µM,4.95 µM,6.15,2.66,3.83 µM,2.03 µM
NC(=S)N/N=C(\C(=O)Nc1ccc(Cl)c(Cl)c1)C1=NN(c2ccccc2)C(c2cccc([N+](=O)[O-])c2)CC1=O (stereo not given),> 100 µM,> 100 µM,35.5 µM,51.4 µM,> 100 µM,36.3 µM,–,> 100 µM,–,–,–,–,–,–,> 100 µM,–,–,–,–,–
O=C1CCC2CCOc3ccc(O)c1c32 (stereo not given),> 100 µM,> 100 µM,–,> 100 µM,> 100 µM,> 100 µM,–,–,–,–,–,–,–,–,> 100 µM,–,–,–,–,–
CC1=C(c2cc(C(=O)Nc3cccc(C(F)(F)F)c3)nc(NC#N)n2)Sc2ccccc2N1,> 100 µM,> 100 µM,> 100 µM,> 100 µM,> 100 µM,> 100 µM,–,> 100 µM,–,–,–,–,–,–,> 100 µM,–,–,–,–,–
Cc1ccc([Se][Se]c2ccc(C)cc2)cc1,> 100 µM,> 100 µM,51.6 µM,> 100 µM,> 100 µM,> 100 µM,–,> 100 µM,–,–,–,–,–,–,39.6 µM,–,–,–,–,–
CCc1cccc(C(C)CC)c1NC(=O)CC1C(=O)Nc2ccccc2S1=O (stereo not given),> 100 µM,> 100 µM,> 100 µM,> 100 µM,> 100 µM,–,–,> 100 µM,–,–,–,–,–,–,> 100 µM,–,–,–,–,–
O=C1CC(c2c[nH]c3ccccc23)C(=O)N1c1ccccc1 (stereo not given),> 100 µM,> 100 µM,> 100 µM,> 100 µM,> 100 µM,–,–,> 100 µM,–,–,–,–,–,–,> 100 µM,–,–,–,–,–
CC1=N/C(=C\c2ccc([N+](=O)[O-])cc2)C(=O)O1,> 100 µM,> 100 µM,> 100 µM,> 100 µM,> 100 µM,> 100 µM,–,–,–,–,–,–,–,–,> 100 µM,–,–,–,–,–
